Laboratory results: PubChem BioAssay (NCI)
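Dose response: 5 concentrations. Exposure: 48 h. Format: 96-well plates. Endpoint: linear interpolation; highest concentration if not reached. TGI: total growth inhibition.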

Legend:
Experiment in all cases: NCI tumour cell line growth inhibition, 48 h
[1] = system: OVCAR-8 ovarian
[2] = system: SF-539 CNS
[3] = system: SNB-78 CNS
[4] = system: DLD-1 colon
[5] = system: XF 498 CNS
[6] = system: KM20L2 colon
[7] = system: DMS 114 small cell lung
[8] = system: DMS 273 small cell lung
[9] = system: HOP-18 NSCLC
[10] = system: M19-MEL melanoma

Row | Structure (SMILES) | TGI [1] | TGI [2] | further results
1 | CN1CC(c2ccccc2)=Cc2c1ccc(N)c2N=N | > 100 µM | > 100 µM | 
2 | CCOC(=O)c1ccc(NC2Oc3cc4c(cc3C(c3cc(OC)c(OC)c(OC)c3)C2C)OCO4)cc1 (stereo unspecified) | 33 µM | 0.878 µM | 
3 | C=C/C(C)=C/[C@H](C)C(=O)C[C@H](O)CC1CC(=O)NC(=O)C1 | > 100 µM | > 100 µM | TGI [3]: > 100 µM; TGI [4]: > 100 µM; TGI [5]: 9.91 µM; TGI [6]: > 100 µM; TGI [7]: > 100 µM; TGI [8]: > 100 µM; TGI [9]: > 93.6 µM; TGI [10]: > 100 µM
4 | CC12CC3c4ccccc4CN1C3(c1ccccc1)OC2=O (stereo unspecified) | > 100 µM | > 100 µM | 
5 | COC(=O)C1Cc2c(C)cccc2C1=O (stereo unspecified) | > 100 µM | > 100 µM | 
6 | O=C1Nc2ccccc2C(=O)OC(Cc2ccccc2)=Nc2ccccc21 | > 100 µM | > 100 µM | 
7 | Oc1c(OCc2nnc(CCCCCCCCc3nnc(COc4ccc5ccccc5c4O)n3Nc3ccccc3)n2Nc2ccccc2)ccc2ccccc12 | 28.3 µM | 20 µM | 
8 | CC1C(c2ccc(N(C)C)cc2)c2cc3c(cc2OC1N1CCCC1)OCO3 (stereo unspecified) | > 100 µM | 60.2 µM | 
9 | CN(C)[C@@H]1C(=O)C(C(N)=O)=C(O)[C@@]2(O)C(=O)C3=C(O)c4c(O)cccc4C[C@H]3C[C@@H]12 | 9.52 µM | 3.84 µM | TGI [4]: 10.8 µM; TGI [6]: 6.18 µM; TGI [7]: 6.41 µM; TGI [9]: 3.56 µM; TGI [10]: 3.12 µM
10 | Nc1c(Br)cc(-c2cc(Br)c(N)c(Br)c2)cc1Br | > 100 µM | > 100 µM | 
11 | N#Cc1[nH]c(=O)n(-c2ccc([N+](=O)[O-])cc2)c1N | > 10 µM | > 10 µM | 
12 | CCOC(=O)C1(Cc2ccc(C)cc2)Cc2ccc(C)cc2C1=O (stereo unspecified) | > 96.6 µM | 58.5 µM | 
13 | CCC1(O)C=CC(=O)C=C1 | > 100 µM | 50.6 µM | 
14 | O=C(CCSC(CC(=O)c1ccc(Cl)cc1)c1ccc(Cl)cc1)Nc1ccc(Cl)cc1 (stereo unspecified) | 29.1 µM | 32.6 µM | 
15 | COC(=O)Cc1c([C@@H]2Nc3ccccc3[C@H]2CC(=O)OC)[nH]c2ccccc12 | > 100 µM | 67.5 µM | 
16 | CN(NC(=O)c1ccco1)C1=NCCCCN1 | > 100 µM | > 100 µM | 
17 | COc1c2nc(CCl)n(C)c(=O)c2c(OC)c2c(=O)n(C)c(CCl)nc12 | 13.2 µM | 13.1 µM | 
18 | N#CC(c1ccc(O)cc1)N1CCN(C(C#N)c2ccc(O)cc2)CC1 (stereo unspecified) | > 53.1 µM | > 100 µM | 
19 | CC(C)CN1CN(c2ccccc2)C2(CCN(CC(C)(c3ccc(F)cc3)C3OCCO3)CC2)C1=O (stereo unspecified) | 29.3 µM | 18.2 µM | 

Row | Structure (SMILES) | TGI [1] | TGI [2] | further results
20 | COc1ccc(-c2nc3ncccn3c2-c2ccc(S(C)=O)cc2)cc1 (stereo unspecified) | > 100 µM | > 100 µM | 
21 | c1ccc2[nH]c(-c3nc4ccccc4o3)nc2c1 | > 100 µM | > 100 µM | TGI [3]: > 100 µM; TGI [4]: > 100 µM; TGI [5]: > 100 µM; TGI [6]: > 100 µM; TGI [7]: > 100 µM; TGI [8]: > 100 µM; TGI [10]: > 100 µM
22 | N#Cc1c(-c2ccco2)c2c(n(C3OC(CO)C(O)C(O)C3O)c1=S)CCCC2 (stereo unspecified) | > 100 µM | > 100 µM | 
23 | C1=C2SSC3=CC=C(SSc4ccc(s4)SSC4=CC=C(SSC(=C1)S2)S4)S3 | > 100 µM |  | 
24 | COc1cc2c(cc1OC)C(=O)N(c1ccc(O)cc1)C2 | > 100 µM | > 100 µM | 
25 | Nc1cc2c(cc1[N+](=O)[O-])[nH]c1c(-c3ccccc3)nccc12 | > 100 µM | > 75.4 µM | TGI [3]: > 58.2 µM; TGI [4]: > 76.5 µM; TGI [5]: > 100 µM; TGI [6]: > 82.8 µM; TGI [7]: 35.7 µM; TGI [8]: 48.9 µM; TGI [9]: 50.8 µM; TGI [10]: 42.7 µM
26 | O=c1cnn(C2OC(CO)C(O)C(F)C2O)c(=O)[nH]1 (stereo unspecified) | > 100 µM | > 100 µM | 
27 | COc1ccc2nc3ccc(OC)cc3c(S(=O)Cc3ccc([N+](=O)[O-])cc3)c2c1 (stereo unspecified) | 13.1 µM | 7.25 µM | 
28 | CC1=C/C(=C(\c2ccc(N(C)C)cc2)c2ccc([N+](C)(C)C)cc2)C=CC1=[N+](C)C | 69.8 µM | 34.6 µM | TGI [3]: 53.5 µM; TGI [4]: 45.3 µM; TGI [5]: 10.1 µM; TGI [6]: 32.8 µM; TGI [7]: 16.1 µM; TGI [8]: 18.2 µM; TGI [10]: 20.3 µM
29 | CCOC(=O)NNC(=O)NCCNC(=O)NNC(=O)OCC | > 100 µM | > 100 µM | 
30 | NCCC1(N)CCNCC1 | > 100 µM | > 100 µM | 
31 | Cc1ccc(-c2cc(-c3ccco3)nc(N)n2)o1 | > 100 µM | > 100 µM | TGI [3]: > 100 µM; TGI [5]: > 100 µM; TGI [6]: > 100 µM; TGI [8]: > 100 µM
32 | O=c1[nH]cnc2c1nnn2CCCn1nnc2c(=O)[nH]cnc21 | > 100 µM | > 100 µM | TGI [3]: > 100 µM; TGI [4]: > 100 µM; TGI [5]: > 100 µM; TGI [6]: > 100 µM; TGI [7]: > 100 µM; TGI [8]: > 100 µM; TGI [9]: > 100 µM; TGI [10]: > 100 µM
33 | CCCCCCCCCCCCNC(=O)NCC(OCC)OCC | > 10 µM | > 10 µM | 
34 | C[N+]1(C)CC=C(N2CCOCC2)CC1 | > 10 µM | > 10 µM | 
35 | COc1ccc(C[C@@H]2CN(C(=O)c3ccccc3)[C@H](Cc3ccc(O)cc3)CN2C(=O)c2ccccc2)cc1Br | > 100 µM | > 100 µM | 
36 | CC(=O)N[C@@H](Cc1ccc(O)cn1)C(=O)NCc1cccc(F)c1 |  | > 100 µM | 
37 | CC1(C)CCc2c(cc3c(c2O)CCC(C)(C)O3)O1 | > 100 µM | > 100 µM | 
38 | Cc1c2c(n3c(nc4ccccc43)c1C#N)N(c1ccc(Cl)cc1)CC2 | > 100 µM | > 100 µM | 
